Measured values: the supplement of paper PMC10307832

Tests used:
Assay in all cases: relative viability (nuclei count vs DMSO), 5 days (fraction); higher = more cells survive
[1] = compound: COC1=CC=C(C=C1)CN2C=CC3=C2C=C(C=C3)C(=O)NO + Cc1nc(NC(=O)N2CCC[C@H]2C(N)=O)sc1-c1ccnc(C(C)(C)C(F)(F)F)c1 [Alpelisib] (partner 2 µM)
Method in brief: (§1)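 Lung cancer cell lines in 1536-well plates were dosed by pin tool the day after seeding, either with one drug alone or with a fixed anchor-drug dose plus five library-drug doses (not always all listed) in √10 steps. After 5 days, cells were fixed and their nuclei stained in one step (final 0.05% Triton X-100, 1% formaldehyde, 1 ug/ml Hoechst), then counted on 4× images. Relative viability is the nuclei count in treated wells divided by that in vehicle wells. Values are medians of duplicate plates.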

[2] = compound: COC1=CC=C(C=C1)CN2C=CC3=C2C=C(C=C3)C(=O)NO + O=C(c1cc(Cc2n[nH]c(=O)c3ccccc23)ccc1F)N1CCN(C(=O)C2CC2)CC1 [Olaparib] (partner 8 µM)
Method in brief: as §1

Veliparib + Bortezomib = compound: C[C@]1(c2nc3c(C(N)=O)cccc3[nH]2)CCCN1 [Veliparib] + CC(C)C[C@H](NC(=O)[C@H](Cc1ccccc1)NC(=O)c1cnccn1)B(O)O [Bortezomib] (partner 0.002 µM)
Method in brief: as §1

Veliparib + Linsitinib = compound: C[C@]1(c2nc3c(C(N)=O)cccc3[nH]2)CCCN1 [Veliparib] + C[C@]1(O)C[C@@H](c2nc(-c3ccc4ccc(-c5ccccc5)nc4c3)c3c(N)nccn32)C1 [Linsitinib] (partner 1 µM)
Method in brief: as §1

| Cell Line | relative viability ([1]; first compound 0.08 µM) | relative viability ([1]; first compound 0.253 µM) | relative viability ([1]; first compound 0.8 µM) | relative viability ([1]; first compound 2.53 µM) | relative viability ([1]; first compound 8 µM) | relative viability ([2]; first compound 0.253 µM) | relative viability ([2]; first compound 0.8 µM) | relative viability ([2]; first compound 2.53 µM) | relative viability ([2]; first compound 8 µM) | relative viability (Veliparib + Bortezomib; first compound 0.02 µM) | relative viability (Veliparib + Bortezomib; first compound 0.06325 µM) | relative viability (Veliparib + Bortezomib; first compound 0.2 µM) | relative viability (Veliparib + Bortezomib; first compound 0.6325 µM) | relative viability (Veliparib + Bortezomib; first compound 2 µM) | relative viability (Veliparib + Linsitinib; first compound 0.02 µM) | relative viability (Veliparib + Linsitinib; first compound 0.06325 µM) | relative viability (Veliparib + Linsitinib; first compound 0.2 µM) | relative viability (Veliparib + Linsitinib; first compound 0.6325 µM) | relative viability (Veliparib + Linsitinib; first compound 2 µM) | relative viability ([2]; first compound 0.08 µM) |
| --- | --- | --- | --- | --- | --- | --- | --- | --- | --- | --- | --- | --- | --- | --- | --- | --- | --- | --- | --- | --- |
| LXF-289 | 0.394 | 1.03 | 1.12 | 1.05 | 1.01 | 1.05 | 1.11 | 1.11 | 1.11 | 0.997 | 0.975 | 1 | 0.959 | 1.02 | 0.93 | 0.955 | 0.954 | 0.922 | 0.925 | – |
| Calu-6 | 0.859 | 0.881 | 0.897 | 1.02 | 0.815 | 0.544 | 0.556 | 0.602 | 0.51 | 1.1 | 0.966 | 0.926 | 1.02 | 0.859 | 0.582 | 0.826 | 0.999 | 0.963 | 0.987 | – |
| ABC-1 | – | 1.37 | 0.928 | 1 | 1.17 | 0.745 | 0.73 | 0.734 | 0.87 | – | 0.266 | 0.257 | 0.259 | 0.304 | – | 0.767 | 0.807 | 0.759 | 0.892 | – |
| NCI-H2087 | 1.08 | 1.08 | 1.21 | 1.13 | 0.864 | 0.595 | 0.676 | 0.524 | 0.56 | 0.563 | 0.819 | 0.81 | 0.709 | 0.838 | 1.01 | 0.903 | 1.02 | 0.898 | 0.999 | 0.564 |
| NCI-H441 | 0.711 | 0.8 | 0.644 | 0.917 | 0.554 | 0.58 | 0.526 | 0.497 | 0.609 | 0.472 | 0.293 | 0.533 | 0.365 | 0.401 | 0.506 | 0.589 | 0.563 | 0.584 | 0.541 | 0.441 |
| NCI-H3122 | 0.613 | 0.88 | 0.828 | 0.87 | 0.701 | 0.642 | 0.616 | 0.6 | 0.583 | 1.01 | 0.99 | 0.968 | 0.998 | 0.938 | 1.04 | 1.01 | 0.983 | 1.04 | 1.06 | 0.624 |
